Experimental data taken from US9593155B2, “Oxyntomodulin analogs” (priority 2009, dated 2017).
Where a SMILES comes first, the peptide text is derived from it. Where no end group is shown, it is not given here. [ ]: non-standard residue; d: D form. The star is where a group is joined. ξ: configuration not given here. CH2CO2(3ξ-cholesteryl) = CC(C)CCC[C@@H](C)[C@H]1CC[C@H]2[C@@H]3CC=C4CC(OC(=O)C*)CC[C@]4(C)[C@H]3CC[C@]12C; mPEG2 40kDa = C3 = Cys(mPEG)2 40 kDa; Met(O) = CS(=O)CC[C@H](N)C(=O)O; Nle = CCCC[C@H](N)C(=O)O; Aib = CC(C)(N)C(=O)O

Target: hGCGR (Homo sapiens, UniProt P47871)
Sequence (P47871 26-477): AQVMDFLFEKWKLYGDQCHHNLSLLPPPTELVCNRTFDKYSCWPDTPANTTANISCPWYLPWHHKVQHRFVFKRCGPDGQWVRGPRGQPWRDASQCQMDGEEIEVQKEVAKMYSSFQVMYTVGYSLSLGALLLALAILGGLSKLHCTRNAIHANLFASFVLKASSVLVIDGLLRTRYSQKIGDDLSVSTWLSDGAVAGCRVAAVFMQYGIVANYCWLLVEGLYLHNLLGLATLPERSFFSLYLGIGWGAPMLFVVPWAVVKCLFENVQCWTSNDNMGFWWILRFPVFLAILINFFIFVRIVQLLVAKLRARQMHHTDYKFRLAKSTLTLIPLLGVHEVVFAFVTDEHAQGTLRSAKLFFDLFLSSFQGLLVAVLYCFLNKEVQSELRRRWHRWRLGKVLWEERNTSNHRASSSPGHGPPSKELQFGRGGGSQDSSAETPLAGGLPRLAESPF
Experiment: fluorescence cell based cAMP assay, CHO cells stably expressing GCGR
Details: for GCGR + 10% plasma (fold shift): EC50 with 10% plasma vs without; for Receptor Selectivity: GLP-1R/GCGR, Table 6
Procedure: We initially screened peptides in fluorescence cell based assays that measure production of cyclic-AMP (cAMP), using CHO cell lines stably expressing either recombinant human GLP-1R or human GCGR. Determination of Mouse and human GLP-1R and GCGR Agonist Activity was essentially as follows. CHO cells stably expressing mouse or human GLP-1R or GCGR were grown in Iscove's Modified Dulbecco's Medium (IMDM), 10% FBS, 1 mM L-glutamine, penicillin-streptomycin (100 μ/mL) and 750 μg G418/mL for three-four days before harvesting using Enzymefree Dissociation Media (EFDM, Specialty Media). […] The assay was terminated with the addition of the LANCE kit Detection buffer as per the manufacturer's instructions. The plates were held an additional hour at room temperature, then increasing cAMP levels were detected by a decrease in TR-FRET signal as measured in an EnVision counter (PerkinElmer) in comparison to a standard curve of cAMP as per the manufacturer's instructions. Data were analyzed using the linear and nonlinear regression analysis software, GraphPad Prism.
The in vitro potencies shown in Table 10 or Table 11 were determined from the results of assays that were similar to either the cell-based cAMP assays described herein above (Table 10) or the cell-based cAMP assays described in International Published Application No. WO2008101017, which is incorporated herein in its entirety, in particular the cell-based cAMP assays described therein (Table 11).

Row | Receptor Selectivity | Compound | GCGR + 10% plasma (fold shift)
1 | – | CCCC[C@H](NC(=O)[C@H](CC(C)C)NC(=O)[C@H](Cc1c[nH]c2ccccc12)NC(=O)[C@H](CCC(N)=O)NC(=O)[C@@H](NC(=O)[C@H](Cc1ccccc1)NC(=O)[C@H](CC(=O)O)NC(=O)[C@H](CCC(N)=O)NC(=O)[C@H](C)NC(=O)[C@H](CCCNC(=N)N)NC(=O)[C@H](CCCNC(=N)N)NC(=O)[C@H](CO)NC(=O)[C@H](CC(=O)O)NC(=O)[C@H](CC(C)C)NC(=O)[C@H](Cc1ccc(O)cc1)NC(=O)[C@H](CCCCN)NC(=O)[C@H](CO)NC(=O)[C@H](Cc1ccc(O)cc1)NC(=O)[C@H](CC(=O)O)NC(=O)[C@H](CO)NC(=O)[C@@H](NC(=O)[C@H](Cc1ccccc1)NC(=O)[C@@H](NC(=O)CNC(=O)[C@H](CCC(N)=O)NC(=O)C(C)(C)NC(=O)[C@@H](N)Cc1c[nH]cn1)[C@@H](C)O)[C@@H](C)O)C(C)C)C(=O)N[C@@H](CC(N)=O)C(=O)N[C@H](C(=O)N[C@@H](CCCCN)C(=O)N[C@@H](CCCNC(=N)N)C(=O)N[C@@H](CC(N)=O)C(=O)N[C@@H](CCCNC(=N)N)C(=O)N[C@@H](CC(N)=O)C(=O)N[C@@H](CC(N)=O)C(=O)N[C@H](C(=O)N[C@@H](C)C(=O)N[C@@H](CSCC(=O)OC1CC[C@@]2(C)C(=CC[C@H]3[C@@H]4CC[C@H]([C@H](C)CCCC(C)C)[C@@]4(C)CC[C@@H]32)C1)C(N)=O)[C@@H](C)CC)[C@@H](C)O (stereo partly shown) [OXM212] (H-H[Aib]QGTFTSDYSKYLDSRRAQDFVQWL[Nle]NTKRNRNNIAC(CH2CO2(3ξ-cholesteryl))-NH2; N-terminus assumed) | (92x) fold
2 | 0/0 | HαQGTFTSDYC3KYLDSRRAQDFVQWLmNTKRNRNNIA-CONH2 (H[Aib]QGTFTSDYC(mPEG2 40kDa)KYLDSRRAQDFVQWL[Met(O)]NTKRNRNNIA-NH2; not fully specified; printed as HαQGTFTSDYC3KYLDSRRAQDFVQWLmNTKRNRNNIA-CONH2) [OXM121] | –
3 | – | CC[C@H](C)[C@H](NC(=O)[C@H](CC(N)=O)NC(=O)[C@H](CC(N)=O)NC(=O)[C@H](CCCNC(=N)N)NC(=O)[C@H](CC(N)=O)NC(=O)[C@H](CCCNC(=N)N)NC(=O)[C@H](CCCCN)NC(=O)[C@@H](NC(=O)[C@H](CC(N)=O)NC(=O)[C@H](CCOC)NC(=O)[C@H](CC(C)C)NC(=O)[C@H](Cc1c[nH]c2ccccc12)NC(=O)[C@H](CCC(N)=O)NC(=O)[C@@H](NC(=O)[C@H](Cc1ccccc1)NC(=O)[C@H](CC(=O)O)NC(=O)[C@H](CCC(N)=O)NC(=O)[C@H](C)NC(=O)[C@H](CCCNC(=N)N)NC(=O)[C@H](CCCNC(=N)N)NC(=O)[C@H](CO)NC(=O)[C@H](CC(=O)O)NC(=O)[C@H](CC(C)C)NC(=O)[C@H](Cc1ccc(O)cc1)NC(=O)[C@H](CCCCN)NC(=O)[C@H](CO)NC(=O)[C@H](Cc1ccc(O)cc1)NC(=O)[C@H](CC(=O)O)NC(=O)[C@H](CO)NC(=O)[C@@H](NC(=O)[C@H](Cc1ccccc1)NC(=O)[C@@H](NC(=O)CNC(=O)[C@H](CCC(N)=O)NC(=O)C(C)(C)NC(=O)[C@@H](N)Cc1c[nH]cn1)[C@@H](C)O)[C@@H](C)O)C(C)C)[C@@H](C)O)C(=O)N[C@@H](C)C(=O)N[C@@H](CSCC(=O)OC1CC[C@@]2(C)C(=CC[C@H]3[C@@H]4CC[C@H]([C@H](C)CCCC(C)C)[C@@]4(C)CC[C@@H]32)C1)C(N)=O (stereo partly shown) [OXM213] | (44x) fold
4 | 0/0 | HαQGTFTSDYSC3YLDSRRAQDFVQWLmNTKRNRNNIA-CONH2 (H[Aib]QGTFTSDYSC(mPEG2 40kDa)YLDSRRAQDFVQWL[Met(O)]NTKRNRNNIA-NH2; not fully specified; printed as HαQGTFTSDYSC3YLDSRRAQDFVQWLmNTKRNRNNIA-CONH2) [OXM124] | –
